How the values were obtained:
[1] = cited from earlier work
[2] = system: subject; settings: believed, not measured; cited from earlier work
[3] = system: humans; settings: IV single bolus; cited from earlier work
[4] = system: subject; experiment: Intramuscular bolus plus infusion of DMT, subject-reported effects; assay type: in vivo, human
Description: In intramuscular infusion, the muscle is first loaded which then diffuses into the peripheral soft tissues, the lymphatics and blood, and then the CNS. The result is a very gentle rise in effect, with the earliest effects usually noticed within the first 2 minutes, and the subject experiencing threshold effects somewhere between 5 and 15 minutes. The intensification of the experience is slow, and while there is some overshoot, it is quite manageable, and usually lasts for only minutes. The key here is turning the pump off when the ideal state is reached, or at the earliest sign of being above the ideal level and reporting when those levels have been achieved.
The same assumptions for IV infusion are made with IM infusion, a 75 kg individual who identifies smoking 25 mg of DMT as an ideal dose. A muscle should be chosen for access with the infusion needle. While any muscle will work, the most favorable option is probably the anterolateral thigh. This allows the patient to be positioned supine comfortably. If the anterolateral thigh is chosen, appropriate garments should be worn by the patient to expose the thigh in a manner that is suitable for access. […]
When the subject is ready, the bolus dose is administered over a short amount of time, preferably about 60 seconds, from time t=0 to t=1 minute. […]

[5] = Transfer rate constants of the Gallimore-Strassman two-compartment model, calculated from G-S Table 2; set-up: species or system human
From the text: For consistency with the G-S model, referred to here as FIG. 1 is the (prior art) model from the 2016 paper by Gallimore Strassman (prior art), where: • k10 rate of elimination from the central compartment (min^−1) • k12 transfer rate from central to peripheral compartment (min^−1) • T same as k12 • k21 transfer rate from peripheral to central compartment (min^−1) • K1e transfer rate from central compartment to effect site (min^−1) • Ke0 rate of elimination of drug from the effect site (min^−1) E same as ke0 • CT plasma concentration (mg/ml) • RT rate at which drug reaches the effect site (mg/min) • [C] DMT concentration in the central compartment (mg/ml) • [P] DMT concentration in the peripheral compartment (mg/ml) […].
It should be appreciated that the notation used in the prior art (G-S) is very different from the notation used herein in developing the models in the present disclosure. In G-S (p. 5), E is used for the elimination rate, without it being made clear if this is the elimination rate from the effect site or from the central compartment. Also, T is used interchangeably with k12 from G-S FIG. 1. The extra parameters in G-S Table 2, Vc (L), Vp (L), Km (mg/L), Vm (mg/min), Q12 (L/min) are not defined, modulo a minor footnote (bottom of p. 4) stating that:

[6] = higher dose, 0.4 mg/kg bolus (G-S FIG. 2A); cited from earlier work
[7] = system: infusion veins; experiment: Venous response to intravenous administration of DMT; assay type: in vivo
From the text: A second, and perhaps more serious issue, with the Gallimore Strassman paper is the administration of DMT intravenously. […] This is especially true of serotonergic drugs which, as noted, can be phlebitic at the site of administration. This in combination with probable chemical irritation, even with iso-osmolar concentrations buffered to a physiologic pH (using DMT fumarate or similar salt), intravenous thrombophlebitis can occur at a rate

[8] = system: humans; settings: cited from earlier work
[9] = system: vein; experiment: Additives to the intravenous DMT infusion, flow rate and venous injury; assay type: in vivo; settings: magnesium 0.1 mg/mL to 100 mg/mL in DMT infusion or maintenance line
From the text: In this respect, the inventors addressed the following goals: • 1. […] A method for combining goals 1 and/or 2 with nitroglycerine ointment on the vein to be cannulated prior to gaining intravenous access, which improves vein patency and dilution from blood flow as well as normal saline. • 4. A method for creating an injectable form of a DMT salt such as fumarate, or freebase DMT in a solution or suspension or emulsion in an iso-osmolar or near iso-osmolar carrier such as hyaluronic acid or polyethylene glycol, as to minimize molecular interaction with the walls and endothelium of the peripheral vasculature, while maintaining water soluble or miscible properties as to not adversely affect the pharmacokinetics. • 5. A method for utilizing goal 4, with any other drug or substance that may cause venous irritation, to minimize the risk of thrombophlebitis, such as nanoparticles or crystals in suspension, or similarly, chemotherapeutic drugs, anesthetic agents and the like.

[10] = inhaling vaporized or smoked DMT, or single IV bolus

Structure (SMILES) | biological half-life ([1]; in vivo) | half-life of injected DMT ([1]; injected) | CNS concentration equating to a full experience [2] | CNS concentration equating to a threshold experience [2] | onset of psychological effects [3] | time by which psychological effects were almost completely resolved [3] | time of peak psychological effects [3] | time to earliest drug effects [4] | time for drug effects to fully abate after pump is turned off ([4]; pump off) | k12, transfer rate from central to peripheral compartment ([5]; 0.2 mg/kg) | k21, transfer rate from peripheral to central compartment ([5]; 0.2 mg/kg) | k12, transfer rate from central to peripheral compartment ([5]; 0.4 mg/kg) | k21, transfer rate from peripheral to central compartment ([5]; 0.4 mg/kg) | blood concentration [6] | venous effects of intravenous administration [7] | duration of experience [8, 10] | time of peak experience [8, 10] | effect of oral ingestion ([8]; oral ingestion, rapid metabolism by monoamine oxidase) | effect on venous injury [9]
CN(C)CCc1c[nH]c2ccccc12 [DMT, N,N-dimethyltryptamine] | in the range of minutes | about 15 minutes | roughly 100 ng/ml | roughly 60 ng/ml | almost immediately after administration | ≤ 30 minutes | 90 to 120 seconds | ≤ 2 min | within about an hour or less | 0.3286 min⁻¹ | 0.2 min⁻¹ | 0.6021 min⁻¹ | 0.1647 min⁻¹ | 100 ng/mL | causing vasoconstriction, phlebitis and eventual closing of the infusion veins | 10 to 15 min | around 5 minutes | virtually no effect | –
[Mg+2] [magnesium] | – | – | – | – | – | – | – | – | – | – | – | – | – | – | – | – | – | – | decrease venous injury

Source: patent US20240390581A1, “METHOD AND APPARATUS FOR A STEADY STATE INT[…] OF SEROTONERGIC DRUGS” (PSOULMED, LLC, priority 2021, published 2024)
